Test results: ChEMBL document CHEMBL1955861, “Aminoimidazoles as BACE-1 inhibitors: the challenge to achieve in vivo brain efficacy” (Bioorg Med Chem Lett, 2012)

Tests used:
[1] = Dissociation constant, pKa of the compound; type: physicochemical
[2] = Ratio of drug level in brain to plasma in C57BL/6 mouse at 300 umol/kg, po administered as single dose 15 mins after GF120918 90 umol/kg, po measured after […] by RPLC-MS/MS analysis; type: ADME, organism-based; conditions: with GF120918 90 umol/kg po, read-out: BPR
[3] = Ratio of drug level in brain to plasma in C57BL/6 mouse at 300 umol/kg, po administered as single dose measured after […] by RPLC-MS/MS analysis; type: ADME, organism-based; conditions: read-out: BPR
[4] = Drug uptake in C57BL/6 mouse brain at 300 umol/kg, po administered as single dose 15 mins after GF120918 90 umol/kg, po measured after […] by RPLC-MS/MS analysis; type: ADME, organism-based; conditions: with GF120918 90 umol/kg po, read-out: Drug uptake

Row | SMILES | pKa [1] | also measured
1 | NC1=NC(c2ccncc2)(c2cccc(-c3cncnc3)c2)C2=NCCCN12 (centres undefined) | 7.6 | 
2 | NC1=NC(c2ccc(OC(F)F)cc2)(c2cccc(-c3cncnc3)c2)C2=NCC(F)(F)CN12 (centres undefined) | 6.1 | 
3 | NC1=NC(c2ccc(OC(F)F)cc2)(c2cccc(OCCCF)c2)C2=NCC(F)(F)CN12 (centres undefined) | 6.5 | 
4 | NC1=N[C@](c2ccc(OC(F)F)cc2)(c2cccc(OCCCF)c2)C2=NCC(F)(F)CN12 |  | Kp at […] [2]: 2.34; Kp at […] [3]: 0.18; concentration at […] [4]: 4 µM

Second part, led by results:

Row | pKa [1] | SMILES | also measured
5 | 5.3 | COc1cccc(-c2cccc([C@]3(c4ccncc4)N=C(N)N4CC(F)(F)CN=C43)c2)c1F | 
6 | 6.8 | COc1ccc(C2(c3cccc(-c4cncnc4)c3)N=C(N)N3CC(F)(F)CN=C32)cc1 (centres undefined) | 
7 | 5.9 | COc1ccc(F)c(-c2cccc(C3(c4ccncc4)N=C(N)N4CC(F)(F)CN=C43)c2)c1 (centres undefined) | 
